Consider one compound from patent US8350062B2, “Synthesis and anticancer activity of new actin-targeting small-molecule agents” (priority 2009, dated 2013).

Assay in all cases: NCI 60 cell line single dose screen
Holding throughout (assay type): cell-based, human

In one experiment the test system is U251. As to conditions: U251 (CNS Cancer), 10 micromolar, 48 h. An excerpt: (§1) Analog 10 was screened utilizing 60 different human tumor cell lines, representing leukemia, melanoma and cancers of the lung, colon, brain, ovary, breast, prostate, and kidney in order to show selective growth inhibition or cell killing of particular tumor cell lines. This screen is unique in that the complexity of a 60 cell line dose response produced by a given compound results in a biological response pattern which can be utilized in pattern recognition algorithms (COMPARE program. See: http://dtp.nci.nih.gov/docs/compare/compare.html). Using these algorithms, it is possible to assign a putative mechanism of action to a test compound, or to determine that the response pattern is unique and not similar to that of any of the standard prototype compounds included in the NCI database. In addition, following characterization of various cellular molecular targets in the 60 cell lines, it may be possible to select compounds most likely to interact with a specific molecular target.
(§2) The screening is a two-stage process, beginning with the evaluation of the compound against the 60 cell lines at a single dose of 10 uM.
(§3) The human tumor cell lines of the cancer screening panel are grown in RPMI 1640 medium containing 5% fetal bovine serum and 2 mM L-glutamine. For a typical screening experiment, cells are inoculated into 96 well microtiter plates in 100 μL at plating densities ranging from 5,000 to 40,000 cells/well depending on the doubling time of individual cell lines. After cell inoculation, the microtiter plates are incubated at 37° C., 5% CO2, 95% air and 100% relative humidity for 24 h prior to addition of experimental drug.
(§4) After 24 h, two plates of each cell line are fixed in situ with TCA, to represent a measurement of the cell population for each cell line at the time of drug addition (Tz). Experimental drugs are solubilized in dimethyl sulfoxide at 400-fold the desired final maximum test concentration and stored frozen prior to use. At the time of drug addition, an aliquot of frozen concentrate is thawed and diluted to twice the desired final maximum test concentration with complete medium containing 50 μg/ml gentamicin.
(§5) Following drug addition, the plates are incubated for an additional 48 h at 37° C., 5% CO2, 95% air, and 100% relative humidity. For adherent cells, the assay is terminated by the addition of cold TCA. Cells are fixed in situ by the gentle addition of […] of cold 50% (w/v) TCA (final concentration, 10% TCA) and incubated for 60 minutes at 4° C. The supernatant is discarded, and the plates are washed five times with tap water and air dried. Sulforhodamine B (SRB) solution (100 μl) at 0.4% (w/v) in 1% acetic acid is added to each well, and plates are incubated for 10 minutes at room temperature. After staining, unbound dye is removed by washing five times with 1% acetic acid and the plates are air dried. Bound stain is subsequently solubilized with 10 mM trizma base, and the absorbance is read on an automated plate reader at a wavelength of 515 nm. For suspension cells, the methodology is the same except that the assay is terminated by fixing settled cells at the bottom of the wells by gently adding 50 μl of 80% TCA (final concentration, 16% TCA). Using the absorbance measurements [time zero, (Tz), control growth, (C), and test growth in the presence of drug (Ti)], the percentage growth is calculated.

The subject of a further experiment is T-47D. The note with it: T-47D (Breast Cancer), 10 micromolar, 48 h.
Text: as §1, §2, §3, §4, §5

The test system of another experiment is CAKI-1. As to conditions: CAKI-1 (Renal Cancer), 10 micromolar, 48 h.
Text: as §1, §2, §3, §4, §5

The test system of another experiment is A498. The note with it: A498 (Renal Cancer), 10 micromolar, 48 h.
Text: as §1, §2, §3, §4, §5

A further experiment has as its system HT29. As to conditions: HT29 (Colon Cancer), 10 micromolar, 48 h.
Text: as §1, §2, §3, §4, §5

The subject of another experiment is SW-620. The note with it: SW-620 (Colon Cancer), 10 micromolar, 48 h.
Text: as §1, §2, §3, §4, §5

For a further experiment, the system named is SK-MEL-5. The note with it: SK-MEL-5 (Melanoma), 10 micromolar, 48 h.
Text: as §1, §2, §3, §4, §5

A further experiment relates to MALME-3M. As to conditions: MALME-3M (Melanoma), 10 micromolar, 48 h.
Text: as §1, §2, §3, §4, §5

Another experiment deals with HCC-2998. The note with it: HCC-2998 (Colon Cancer), 10 micromolar, 48 h.
Text: as §1, §2, §3, §4, §5

The next experiment deals with M14. The note with it: M14 (Melanoma), 10 micromolar, 48 h.
Text: as §1, §2, §3, §4, §5

Another experiment relates to ACHN. As to conditions: ACHN (Renal Cancer), 10 micromolar, 48 h.
Text: as §1, §2, §3, §4, §5

A further experiment has as its system HOP-62. As to conditions: HOP-62 (Non-Small Cell Lung Cancer), 10 micromolar, 48 h.
Text: as §1, §2, §3, §4, §5

For a further experiment, the system named is RPMI-8226. The note with it: RPMI-8226 (Leukemia), 10 micromolar, 48 h.
Text: as §1, §2, §3, §4, §5

A further experiment concerns OVCAR-4. The note with it: OVCAR-4 (Ovarian Cancer), 10 micromolar, 48 h.
Text: as §1, §2, §3, §4, §5

The test system of another experiment is UO-31. The note with it: UO-31 (Renal Cancer), 10 micromolar, 48 h.
Text: as §1, §2, §3, §4, §5

Another experiment concerns RXF 393. As to conditions: RXF 393 (Renal Cancer), 10 micromolar, 48 h.
Text: as §1, §2, §3, §4, §5

The subject of a further experiment is NCI/ADR-RES. As to conditions: NCI/ADR-RES (Ovarian Cancer), 10 micromolar, 48 h.
Text: as §1, §2, §3, §4, §5

The next experiment relates to MDA-MB-435. As to conditions: MDA-MB-435 (Melanoma), 10 micromolar, 48 h.
Text: as §1, §2, §3, §4, §5

Another experiment deals with SF-295. The note with it: SF-295 (CNS Cancer), 10 micromolar, 48 h.
Text: as §1, §2, §3, §4, §5

Another experiment relates to SR. The note with it: SR (Leukemia), 10 micromolar, 48 h.
Text: as §1, §2, §3, §4, §5

The next experiment deals with OVCAR-5. As to conditions: OVCAR-5 (Ovarian Cancer), 10 micromolar, 48 h.
Text: as §1, §2, §3, §4, §5

The test system of another experiment is NCI-H322M. As to conditions: NCI-H322M (Non-Small Cell Lung Cancer), 10 micromolar, 48 h.
Text: as §1, §2, §3, §4, §5

On to `COCCC(=O)NC[C@H](O)[C@H](C)C(=O)NCCC[C@H]1O[C@@]2(CCC[C@@H](CC[C@H](C)/C=C(\C)[C@H](C)O)O2)CCC1C` (stereo partly shown) [Analog 10], for which the “Growth Percent” value in the experiment on U251 is recorded as 50.08%; in the experiment on T-47D, 71.80%; in the experiment on CAKI-1 it was −37.52%; in the experiment on A498 it was 1.82%; with HT29 it was 30.53%; with SW-620 it was 45.90%. The “Growth Percent” value in the experiment with SK-MEL-5 is given as 75.27%; in the experiment with MALME-3M, 72.36%; in the experiment on HCC-2998 it was 66.34%; in the experiment with M14, 71.74%; in the experiment on ACHN, 51.57%; with HOP-62, 40.92%. Moreover, the “Growth Percent” value in the experiment on RPMI-8226 was determined as 58.70%; in the experiment on OVCAR-4, 45.16%; in the experiment on UO-31, 22.67%; with RXF 393 it was 26.83%; in the experiment on NCI/ADR-RES, 88.16%; with MDA-MB-435, 72.88%. In addition, the “Growth Percent” value amounted to 13.26% with SF-295, 40.40% with SR, 61.79% in the experiment with OVCAR-5 and 113.58% in the experiment on NCI-H322M.
